One series deals with host cells of the virus. As to the kind of experiment: Cell toxicity to the host cells of the virus at 10 μM. Type of series: cell-based.
Series [1] deals with HIV-1. As to the kind of experiment: Inhibitory activity against HIV-1 (literature method, Chen et al. J Virol 1997). The note with it: Human immunodeficiency virus 1, read-out: Anti-HIV (%, 1.0 μM). As for the experimental part:
Inhibitory activity of the coumarin derivatives of the present invention against HIV-1.
Inhibitory activity of the compounds against HIV-1 is assayed using the literature method. The experimental conditions, procedures, reagents and so on of the experiment are referred to the reference of “ZHIWEI CHEN, PEI ZHOU, DAVID D. HO, et al. Genetically divergent strains of simian immuno-deficiency virus use CCR5 as a coreceptor for entry. Journal of Virology, 1997, 71(4): 2705-2714”.

The next series deals with H37Rv strain. The note with it: H37Rv strain growth; Bioorg. Med. Chem., 2004, 1199-1207; cited from earlier work.
The test system of series [2] is CEM-SS cells (human T-lymphoblastic cells). The note with it: cited from earlier work.
In series [3] the test system is HIV-1. Particulars: cited from earlier work.
The subject of series [4] is Mycobacterium tuberculosis H37Rv (ATCC 27294). As to the kind of experiment: Microplate Alamar Blue Assay (MABA) in BACTEC 12B medium (TAACF screen). Type of series: cell-based.

≈ marks a conversion by molar mass, not a printed value. Like-named read-outs stand apart in the source and are kept apart here. Where only a bound is given, the exact number is not on record here.

By CC50 is commonly meant the concentration at which the toxic effect on the cells reaches its halfway point. For orientation: EC50 means the concentration at which the effect is half-maximal. For `CCCc1cc(=O)oc2c3c(c4c(c12)OC(C)(C)C=C4)O[C@H](C)[C@@H](C)[C@@H]3O` [(+)-Calanolide A, (+)-calanolide A], the “Cell toxicity (10 μM), number printed before the class symbol” value in the series with host cells of the virus (10 μM) was found to be 6%. For the same compound, the inhibition at 1 µM in the series with HIV-1 [1] is 86%. Also, the MIC90 in the series on H37Rv strain was 3.13 µg/mL (≈ 8.45 µM). In addition, the CC50 in series [2] is 20000 nM. Moreover, in the series with HIV-1 [3] (J. MED. CHEM. 1996, 39, 1303), the “therapeutic index (TI)” value is given as 16-279. For the same compound, the EC50 with HIV-1 [3] (anti-HIV-1, literature, read-out: EC50) was 100 nM; in the series on HIV-1 [3] (from J. Med. Chem. 1996, 39(6):1303-13, unit inferred, read-out: EC50 (TI)) it was 100 to 200 nM. In the series with HIV-1 [3] (resistant strain A17), the “activity against TIBO of pyridinone-resistant A17 strains” value was “active”. Moreover, in the series with HIV-1 [3] (resistant strain G-9106), the “activity against AZT-1-resistant strains (G-9106) of HIV-1” value is “active”.

What is called IC50 is the midpoint of a concentration-inhibition curve. A lower IC50 goes with inhibition by little substance. As a reminder, the melting point is the temperature, or range, at which the solid turns liquid. Regarding `C/C=C/C1C=Cc2c3c(c4oc(=O)cc(CC)c4c2O1)C(=O)CC(C)O3` (stereo not shown) [Example 87, 4-ethyl-6-propenyl-10-methyl-2H,6H,12H-benzo[1,2-b:3,4-b′:5,6-b″]-tripyranyl-2,12-d ione], the melting point was 153 to 155 °C. In addition, in the series on host cells of the virus, the “Cell toxicity (10 μM)” value is listed as “−”. In series [4], the IC50 was 51.2 µg/mL (≈ 145 µM). For the same compound, the MIC90 in series [4] (MABA, H37Rv, read-out: MIC90) is over 100 µg/mL. For the same compound, in the series on HIV-1 [1], the inhibition at 1 µM was 56.4%.

In turn, `CCCc1cc(=O)oc2c3c(c4c(c12)OC(CCC)C=C4)OC(C)CC3=O` (stereo not shown) [Example 34, 10-methyl-4,6-di(-n-propyl)-2H,6H,12H-benzo[1,2-b:3,4-b′:5,6-b″]-tripyranyl-2,12-dione] came in with a melting point of 158 to 160 °C. Moreover, the “Cell toxicity (10 μM)” value in the series on host cells of the virus is recorded as “−”. The same compound had an IC50 in series [4] of 2.88 µg/mL (≈ 7.8 µM). The MIC90 in series [4] (MABA, H37Rv, read-out: MIC90) is 3.18 µg/mL (≈ 8.64 µM). The MIC90 in series [4] (read-out: anti-TB active compound (MIC90 less than 10 μg/mL), classification) was under 10 µg/mL. The inhibition at 1 µM with HIV-1 [1] amounted to 54.1%.

Consider `CCCCc1cc(=O)oc2c3c(c4c(c12)OC(C)C=C4)OC(C)CC3=O` (stereo not shown) [Example 82, 6,10-dimethyl-4-n-butyl-2H,6H,12H-benzo[1,2-b:3,4-b′:5,6-b″]-tripyranyl-2,12-dione], for which the melting point was in the range of 128 to 129 °C. For the same compound, the “Cell toxicity (10 μM)” value with host cells of the virus is given as “−”. Besides, the IC50 in series [4] was 36.3 µg/mL (≈ 102 µM). The MIC90 in series [4] (MABA, H37Rv, read-out: MIC90) is 56.2 µg/mL (≈ 158 µM). In addition, the inhibition at 1 µM with HIV-1 [1] was found to be 75.4%.

(Values after patent US20100324067A1, “TETRACYCLIC DIPYRANO-COUMARIN COMPOUNDS WITH ANTI-HIV AND ANTI-MYCOBACTERIUM TUBERCULOSIS ACTIVITIES” (priority 2007, published 2010).)
